The values that follow come from US9993002B2, “1,2,3-thiadiazol-5yl-urea derivatives, use thereof for regulating plant senescence and preparations containing these derivatives” (USTAV EXPERIMENTALNI BOTANIKY AV CR, V.V.I., priority 2014, dated 2018).

Like-named read-outs stand apart in the source and are kept apart here.

In data set [1] the test system is detached leaf segments of Triticum aestivum cv. Hereward. As to the kind of experiment: Senescence bioassay on wheat leaf segments in dark conditions. Conditions: Triticum aestivum, foliar, 96 h, read-out: Senescence bioassay (IC50). Here is the method:
(§1) Seeds of winter wheat, Triticum aestivum cv. Hereward, were washed under running water for 24 hours and then sown on perlite soaked with Hogland's solution. They were placed in the growth chamber at 25° C. with a 16/8 h light period at 50 μmol·m^−2·s^−1. After 7 days, the first leaf was fully developed and the second leaf had started to grow. A tip section of the first leaf, approximately 4 cm long, was removed from 4 seedlings and trimmed slightly to a combined weight of 100 mg. The basal ends of the four leaf tips were placed into the 96-wells plate containing 150 μL of the tested derivative solution each. The entire plate was inserted into a plastic box lined with paper tissues soaked in distilled water to prevent leaf sections from drying out. After 96 h incubation in the dark at 25° C., the leaves were removed and chlorophyll extracted by heating at 80° C. for 10 min in 5 mL of 80% ethanol (v/v). The sample volume was then restored to 5 mL by the addition of 80% ethanol (v/v). The absorbance of the extract was recorded at 665 nm. In addition, chlorophyll extracts from fresh leaves and leaf tips incubated in deionised water were measured. The results are means of five replicates and the entire test was repeated at least twice. […] The compounds to be tested were dissolved in dimethylsulfoxide (DMSO) and the solution brought up to 10^−3 M with distilled water. […] The IC50 values were determined for standard (BAP) and novel tested compounds.

Data set [2] can be described thus: Toxicity towards human skin fibroblasts (Calcein AM assay). The class given is cell-based. Here is the method:
Cytotoxicity of the compounds to human skin fibroblasts (BJ cell line) was determined in a standard Calceinovém AM test. Cells were maintained in plastic tissue culture flasks and grown in Dulbecco's modified Eagle's medium for cell culture (DMEM) at 37° C. in 5% CO2 and 100% humidity. Cells were placed into 96-well microtiter plates (Nunc, Denmark) and after 12 hours pre-incubation, the tested compound was added to a final concentration ranging from […]. Cells were incubated for 72 hours. At the end of incubation period Calcein AM was added in PBS to a final concentration of […]. After 1 hour of incubation fluorescence was measured at 485/538 nm (ex/em wavelength) using Fluoroskan Ascent (Labsystems, Finland). IC50 values (the concentration causing reduction of calcein AM conversion to 50%) were calculated from the curves obtained. All experiments were repeated four times with a maximum deviation of 15%. Due to the limited solubility of substances in water, all the tested compounds were dissolved in DMSO and diluted with water to a final concentration.

Data set [3] deals with detached leaves of Triticum aestivum cv. Hereward. As to the kind of experiment: Membrane lipid peroxidation (MDA, TBA method) in detached wheat leaves in the dark. Conditions: for MDA: four days in the dark. Here is the method:
A typical symptom associated with senescence as a direct consequence of increased reactive oxygen species is membrane lipid peroxidation which produces malondialdehyde (MDA). Therefore the levels of MDA, a decomposition product of lipid peroxidation, were measured in detached wheat leaves that were exposed to the prepared novel derivatives or BAP for four days in the dark as described in Example 7. MDA levels were measured using a thiobarbituric acid (TBA) method. In detail, 100 mg of fresh plant material was homogenized by high speed shaking in a ball mill (MM301, Retsch, Germany) with 1 mL of 70% methanol. The crude extract was centrifuged at 10,000×g for 5 min, and 100 μL aliquot of supernatant was vortexed with 100 μL of 0.5% (w/v) TBA containing 0.1% (w/v) trichloroacetic acid, and the resulting solution was then incubated for 30 min at 95° C. The samples were quickly cooled on ice and centrifuged for 5 min at 1000 g. The absorbance of supernatant was measured at 532 nm with background subtraction at 600 nm and the amount of MDA-TBA complex was calculated from the coefficient of absorbance 155 mM^−1 cm^−1.

Data set [4] has as its system detached leaf segments of Triticum aestivum cv. Hereward. As to the kind of experiment: Senescence bioassay on wheat leaf segments in dark/light conditions. The settings on record: foliar, 168 h, read-out: Senescence bioassay (IC50). Here is the method:
as §1
The ability of the novel compounds to retard chlorophyll degradation in detached wheat leaves was tested also in the light conditions. The experiment was performed as described in Example 7 with modifications as follows—the incubation of the leaves with the compounds was done in the dark/light conditions 8/16 (light—100 μmol·m^−2·s^−1) at 22° C. for 7 days. […] The newly prepared substituted 1,2,3-thiadiazol-5-yl urea derivatives of the invention are much stronger anti-senescent compounds in comparison to the BAP in retarding senescence under optimal (dark/light) conditions.

The subject of the next data set is wheat leaves. As to the kind of experiment: Ethylene production (defoliating activity) assay. Conditions: 10 μM; for Ethylene produced: 96 h in the dark at 25° C., control 270 (±15). Further details: species or system Triticum aestivum. Here is the method:
We investigated the effect of the compounds of the invention on ethylene production in wheat leaves. The leaves were obtained as described in Example 8, placed in 5 mL glass vials and immersed at 10 μM solutions of tested compounds of the invention or TDZ. Distilled water was used as a control treatment. After 96 h incubation in the dark at 25° C., 1 mL of air was taken from the vials and content of ethylene in it was determined using gas chromatography with the flame ionization detector (GC-FID) method described by Fišerová et al. (Fišerová H, Kula E, Klemš M, Reinöhl V (2001) Phytohormones as indicators of the degree of damage in birch (Betula pendula). Biológia 56: 405-409).

The subject of data set [5] is Arabidopsis thaliana (wild-type Col-0). As to the kind of experiment: Root growth and lateral root formation of Arabidopsis. The class given is in vivo. The settings on record: 10 nM, two weeks after transfer. Here is the method:
To investigate in vivo effect of the new derivatives on the root growth and development, seeds of Arabidopsis thaliana (wild-type Col-0) were surface sterilized and sown on vertical plates on half-strength Murashige-Skoog medium (supplied with 0.1% sucrose and 6 g/L phytagel) containing 10 nM BAP or 10 nM 1,2,3-thiadiazol-5-yl-urea derivative, or 0.01% DMSO (solvent control). After vernalization (4 days in the dark, 4° C.) plates were transferred into the growth chamber (22° C., 16/8 light/dark). Two weeks after transfer, seedlings were photographed and root elongation and lateral root formation was scored using Scion image software (Scion Corp., Frederick, Md., USA). At least 40 plants were measured for each treatment.

Setting [6] is: dark, 25° C., chlorophyll absorbance 665 nm.
Setting [7] is: dark/light 8/16, 22° C., 7 days.

For `COCCNC(=O)Nc1cnns1` [Compound 6, 1-(2-methoxy-ethyl)-3-[1,2,3]thiadiazol-5-yl-urea], the IC50 in data set [1] (setting [6]) stood at 950 nM; in data set [4] (setting [7]), 30 nM. Besides, the CC50 at 72 h in data set [2] was over 100000 nM. The “level of membrane lipid peroxidation during dark senescence reduced to” value in data set [3] (compared to untreated control) stood at 44.6%. For the same molecule, the MDA in data set [3] was 9.6 (±0.7) nmol/g FW. Further, the Ethylene produced in the data set with wheat leaves is reported as 275 (±14) nL/g FW. Besides, the Lateral root number in data set [5] is 17 (±9). In addition, the Primary root lenght in data set [5] is reported as 48 (±15) mm.

Turning to `O=C(NCc1ccco1)Nc1cnns1` [Compound 84, N-furfuryl-N′-1,2,3-thiadiazol-5-yl-urea], the IC50 in data set [1] (setting [6]) stood at 1200 nM. In addition, the CC50 at 72 h in data set [2] was over 100000 nM. Moreover, in data set [3], the MDA is 12.7 (±1.1) nmol/g FW. Further, the IC50 in data set [4] (setting [7]) was 30 nM. In addition, the “elevation of ethylene production compared to untreated control” value in the data set on wheat leaves (96 h) is reported as 25%. For the same molecule, in the data set with wheat leaves, the Ethylene produced was 337 (±28) nL/g FW. Besides, in data set [5], the Lateral root number was 13 (±6) and the Primary root lenght is recorded as 30 (±6) mm.

Take `O=C(NCCCl)Nc1cnns1` [Compound 65, 1-(2-Chloro-ethyl)-3-[1,2,3]thiadiazol-5-yl-urea]: the IC50 in data set [1] turned out to be 14000 nM; in data set [4], 700 nM. Besides, the CC50 at 72 h in data set [2] (BJ cell line, 72 hours, read-out: not toxic up to the highest tested concentration (Calcein AM IC50)) was over 100000 nM. Also, the MDA in data set [3] is 16.4 (±0.5) nmol/g FW. In addition, the Ethylene produced in the data set with wheat leaves is on record as 335 (±25) nL/g FW. Also, the Lateral root number in data set [5] was 12 (±8). The Primary root lenght in data set [5] is 36 (±8) mm.
